Source: patent publication US6969703B2, “Inhibitors of the ICE/ced-3 family of cysteine proteases” (Idun Pharmaceuticals, Inc., priority 2000, dated 2005)
One block for each molecule: values may come before it. Primed or numbered codes have the meaning given here. The star is where a group is joined. aldehyde′ = C-terminal aldehyde (aspartyl aldehyde); Cbz = O=C(OCc1ccccc1)*; CH2F = FC*

Legend:
Csp-1 [1] = molecular target: T1, Csp-1 (Homo sapiens, UniProt P29466); test: Fluorescence enzyme assay, IC50 determination; type: biochemical; conditions: recombinant enzyme, 30 minutes preincubation at room temperature, AMC substrate
T1 sequence (P29466 120-297 limits assumed): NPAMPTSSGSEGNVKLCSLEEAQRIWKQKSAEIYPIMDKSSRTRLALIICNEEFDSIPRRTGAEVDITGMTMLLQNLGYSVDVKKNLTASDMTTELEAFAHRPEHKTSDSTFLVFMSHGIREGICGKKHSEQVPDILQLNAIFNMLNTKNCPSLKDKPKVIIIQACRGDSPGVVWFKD
Protocol: (§1) Fluorescence enzyme assays detecting the activity of the compounds of Formula I utilizing the recombinant ICE and CPP32 enzymes are performed essentially according to Thornberry et al. (Nature 356:768:774 (1992)) and Nicholson et al. (Nature 376:37-43 (1995)) respectively, (herein incorporated by reference) in 96 well microtiter plates. The substrate is Acetyl-Tyr-Val-Ala-Asp-amino-4-methylcoumarin (AMC) (SEQ ID NO: 1) for the ICE assay and Acetyl-Asp-Glu-Val-Asp-amino-4-methylcoumarin (SEQ ID NO: 2) for the CPP32, Mch2, Mch3 and Mch5 assays. Enzyme reactions are run in ICE buffer (25 mM HEPES, 1 mM EDTA, 0.1% CHAPS, 10% sucrose, pH 7.5) containing 2 mM DTT at room temperature in duplicate. The assays are performed by mixing the following components: • 50 μL ICE, Mch2, Mch5, CPP32 (18.8, 38, 8.1 and 0.153 nM concentrations, respectively) or Mch3 (1 unit) enzyme in ICE buffer containing either 8.0 (ICE, Mch2, Mch3, CPP32) or 20 (Mch5) mM DTT; • 50 μL compound of Formula I or ICE buffer (control); and • 100 μL of 20 μM substrate.
(§2) The enzyme and the compound of Formula I to be assayed are allowed to preincubate in the microtitre plate wells for 30 minutes at room temperature prior to the addition of substrate to initiate the reaction. Fluorescent AMC product formation is monitored for one hour at room temperature by measuring the fluorescence emission at 460 nm using an excitation wavelength of 360 nm. The fluorescence change in duplicate (control) wells are averaged and the mean values are plotted as a function of inhibitor concentration to determine the inhibitor concentration producing 50% inhibition (IC50).
(§3) The activity of a representative compound of this invention (i.e., Compound No. 1) was evaluated according to the procedures disclosed in Example 1. More specifically, the IC50 and Ki for Compound No. 1 were determined as set forth above. The IC50 results are provided in Table 2, as run against Cbz-ValAlaAsp-H as a reference control.

Csp-3 [2] = molecular target: T2, Csp-3 (Homo sapiens, UniProt P42574); test: Fluorescence enzyme assay, IC50 determination; type: biochemical; conditions: recombinant enzyme, 30 minutes preincubation at room temperature, AMC substrate
T2 sequence (P42574 29-175 limits assumed): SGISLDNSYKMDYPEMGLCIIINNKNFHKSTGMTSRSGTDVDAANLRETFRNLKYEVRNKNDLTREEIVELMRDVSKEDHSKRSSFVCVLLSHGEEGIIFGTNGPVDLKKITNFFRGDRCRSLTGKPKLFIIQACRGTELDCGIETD
Protocol: as §1, §2, §3

Csp-6 [3] = molecular target: T3, Csp-6 (Homo sapiens, UniProt P55212); test: Fluorescence enzyme assay, IC50 determination; type: biochemical; conditions: 30 minutes preincubation at room temperature, AMC substrate
T3 sequence (P55212 24-179 limits assumed): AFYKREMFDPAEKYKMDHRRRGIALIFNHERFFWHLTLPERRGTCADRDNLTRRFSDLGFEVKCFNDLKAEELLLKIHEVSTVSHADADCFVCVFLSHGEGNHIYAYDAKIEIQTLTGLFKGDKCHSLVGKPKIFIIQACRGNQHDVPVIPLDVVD
Protocol: as §1, §2, §3

Csp-7 [4] = molecular target: T4, Csp-7 (Homo sapiens, UniProt P55210); test: Fluorescence enzyme assay, IC50 determination; type: biochemical; conditions: 30 minutes preincubation at room temperature, AMC substrate
T4 sequence (P55210 24-198 limits assumed): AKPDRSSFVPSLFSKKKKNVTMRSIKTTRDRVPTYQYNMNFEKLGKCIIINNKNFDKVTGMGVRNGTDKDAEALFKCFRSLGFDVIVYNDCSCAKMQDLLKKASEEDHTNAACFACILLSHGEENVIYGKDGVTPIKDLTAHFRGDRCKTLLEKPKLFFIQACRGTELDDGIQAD
Protocol: as §1, §2, §3

Csp-8 [5] = molecular target: T5, Csp-8 (Homo sapiens, UniProt Q14790); test: Fluorescence enzyme assay, IC50 determination; type: biochemical; conditions: 30 minutes preincubation at room temperature, AMC substrate
Protocol: as §1, §2, §3

Csp-9 [6] = molecular target: T6, Csp-9 (Homo sapiens, UniProt P55211); test: Fluorescence enzyme assay, IC50 determination; type: biochemical; conditions: 30 minutes preincubation at room temperature, AMC substrate
T6 sequence (P55211 1-315 limits assumed): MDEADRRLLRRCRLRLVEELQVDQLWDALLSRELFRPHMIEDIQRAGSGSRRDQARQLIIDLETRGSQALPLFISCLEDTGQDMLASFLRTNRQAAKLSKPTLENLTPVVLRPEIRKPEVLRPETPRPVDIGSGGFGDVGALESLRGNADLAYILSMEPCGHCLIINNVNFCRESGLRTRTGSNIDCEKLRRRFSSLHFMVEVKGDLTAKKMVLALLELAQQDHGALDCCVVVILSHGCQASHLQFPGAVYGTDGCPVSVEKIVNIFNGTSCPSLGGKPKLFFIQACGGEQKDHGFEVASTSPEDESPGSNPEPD

Csp-1 [7] = molecular target: T1, Csp-1; test: Continuous assay for dissociation constant Ki of irreversible inhibitors; type: biochemical; conditions: continuous assay for sixty minutes, reaction initiated by adding enzyme to substrate-inhibitor mixture
Source text: (§4) For the irreversible inhibition of a ICE/ced-3 Family Protease enzyme with a competitive irreversible inhibitor; using the model represented by the following formulas: [drawing 16] The product formation at time t may be expressed as: [formula] where E, I, EI and E-I denote the active enzyme, inhibitor, non-covalent enzyme-inhibitor complex and covalent enzyme-inhibitor adduct, respectively. The Ki value is the overall dissociation constant of the reversible binding steps, and k3 is the irreversible rate constant. The [S] and Ks values are the substrate concentration and dissociation constant of the substrate bound to the enzyme, respectively. [E]^T is the total enzyme concentration.
(§5) The equations set forth in Example I were also used determine the Ki values of inhibitor (i.e., Compound No. 1) bound to a ICE/ced-3 family protease. Thus, a continuous assay was run for sixty minutes at various concentrations of the inhibitor and the substrate. The assay was formulated essentially the same as described above for generating the data in Table 2, except that the reaction was initiated by adding the enzyme to the substrate-inhibitor mixture. The Ki values were obtained by simulating the product AMC formation as a function of time according to Equation I. The results of this second assay are set forth below in Table 3, wherein the reference compound was Cbz-ValAlaAsp-CH2F.

Csp-3 [8] = molecular target: T2, Csp-3; test: as above; type: biochemical; conditions: continuous assay for sixty minutes, reaction initiated by adding enzyme to substrate-inhibitor mixture
Source text: as §4, §5

Csp-6 [9] = molecular target: T3, Csp-6; test: as above; type: biochemical; conditions: continuous assay for sixty minutes, reaction initiated by adding enzyme to substrate-inhibitor mixture
Source text: as §4, §5

Csp-8 [10] = molecular target: T5, Csp-8; test: as above; type: biochemical; conditions: continuous assay for sixty minutes, reaction initiated by adding enzyme to substrate-inhibitor mixture
Source text: as §4, §5

Csp-1 [11] = molecular target: T7, Csp-1 (UniProt P29466 120-297; P29466 317-404, limits assumed); test: continuous fluorogenic enzyme assay, 60 min, fit of AMC product formation to irreversible competitive inhibition model
T7 sequence (looked up) 1: T1 sequence (P29466 120-297 limits assumed)
T7 sequence (looked up) 2: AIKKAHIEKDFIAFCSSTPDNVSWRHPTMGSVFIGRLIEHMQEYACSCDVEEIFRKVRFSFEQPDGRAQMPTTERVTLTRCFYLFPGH

Csp-3 [12] = molecular target: T8, Csp-3 (UniProt P42574 29-277, limits assumed); test: as above
T8 sequence (looked up): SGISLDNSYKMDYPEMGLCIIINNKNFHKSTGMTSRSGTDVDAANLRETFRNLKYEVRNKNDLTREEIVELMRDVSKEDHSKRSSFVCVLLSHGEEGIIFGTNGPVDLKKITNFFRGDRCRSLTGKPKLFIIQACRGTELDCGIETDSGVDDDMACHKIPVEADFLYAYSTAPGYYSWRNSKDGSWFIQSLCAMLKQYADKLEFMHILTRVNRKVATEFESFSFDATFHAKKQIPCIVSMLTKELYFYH

Csp-6 [13] = molecular target: T9, Csp-6 (UniProt P55212 24-179; P55212 194-293, limits assumed); test: as above
T9 sequence (looked up) 1: T3 sequence (P55212 24-179 limits assumed)
T9 sequence (looked up) 2: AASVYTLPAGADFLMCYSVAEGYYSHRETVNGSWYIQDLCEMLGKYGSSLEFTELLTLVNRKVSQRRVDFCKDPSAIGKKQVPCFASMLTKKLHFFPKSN

Csp-8 [14] = molecular target: T10, Csp-8 (UniProt Q14790 217-374; Q14790 385-479, limits assumed); test: as above
Csp-1 [15] = molecular target: T7, Csp-1; test: cell-based or functional assay
Csp-3 [16] = molecular target: T8, Csp-3; test: cell-based or functional assay
Csp-6 [17] = molecular target: T9, Csp-6; test: cell-based or functional assay
Csp-7 [18] = molecular target: T11, Csp-7 (UniProt P55210 24-303, limits assumed); test: cell-based or functional assay
T11 sequence (looked up): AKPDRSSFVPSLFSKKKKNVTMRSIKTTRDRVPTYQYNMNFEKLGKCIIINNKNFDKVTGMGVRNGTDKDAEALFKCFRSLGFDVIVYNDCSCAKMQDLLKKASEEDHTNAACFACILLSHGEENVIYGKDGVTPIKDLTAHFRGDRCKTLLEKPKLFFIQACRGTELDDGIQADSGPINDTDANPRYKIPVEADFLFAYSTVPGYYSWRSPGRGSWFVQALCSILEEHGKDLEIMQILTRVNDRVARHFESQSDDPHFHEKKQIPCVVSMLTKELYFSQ

Csp-8 [19] = molecular target: T10, Csp-8; test: cell-based or functional assay
Csp-9 [20] = molecular target: T12, Csp-9 (UniProt P55211 1-416, limits assumed); test: cell-based or functional assay
T12 sequence (looked up): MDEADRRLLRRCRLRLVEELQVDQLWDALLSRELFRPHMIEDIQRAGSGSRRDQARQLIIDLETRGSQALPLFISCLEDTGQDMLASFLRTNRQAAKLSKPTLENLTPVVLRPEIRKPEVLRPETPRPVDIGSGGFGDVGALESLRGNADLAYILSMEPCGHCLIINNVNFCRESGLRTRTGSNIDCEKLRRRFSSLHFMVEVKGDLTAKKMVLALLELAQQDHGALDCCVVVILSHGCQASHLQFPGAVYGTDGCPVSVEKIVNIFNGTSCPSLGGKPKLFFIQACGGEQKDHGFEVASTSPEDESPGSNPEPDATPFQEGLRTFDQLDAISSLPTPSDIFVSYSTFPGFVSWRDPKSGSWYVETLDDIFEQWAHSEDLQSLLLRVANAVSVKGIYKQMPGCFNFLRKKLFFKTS

T10 sequence (Q14790 217-374 limits assumed, form in doubt, chain 1 of 2): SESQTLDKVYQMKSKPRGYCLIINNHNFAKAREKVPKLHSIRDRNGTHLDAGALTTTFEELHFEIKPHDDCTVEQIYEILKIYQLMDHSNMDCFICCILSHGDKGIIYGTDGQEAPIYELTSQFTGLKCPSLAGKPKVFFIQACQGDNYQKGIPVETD
T10 sequence (Q14790 385-479 limits assumed, form in doubt, chain 2 of 2): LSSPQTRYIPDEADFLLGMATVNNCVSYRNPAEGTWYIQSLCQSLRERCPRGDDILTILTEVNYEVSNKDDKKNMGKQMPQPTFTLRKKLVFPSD
T5 sequence (Q14790 217-374 limits assumed): as the sequence (Q14790 217-374 limits assumed, form in doubt, chain 1 of 2) above

- IC50 (Csp-1 [1]): 4 nM
- IC50 (Csp-3 [2]): 2 nM
- IC50 (Csp-6 [3]): 2 nM
- IC50 (Csp-7 [4]): 4 nM
- IC50 (Csp-8 [5]): 6 nM
- IC50 (Csp-9 [6]): 5 nM
- Ki (Csp-1 [7]): 200 nM
- Ki (Csp-3 [8]): 80 nM
- Ki (Csp-6 [9]): 400 nM
- Ki (Csp-8 [10]): 600 nM
Molecule: CC(C)C(NC(=O)COc1cccc2ccccc12)C(=O)NC(CC(=O)NS(C)(=O)=O)C(=O)COc1c(F)c(F)cc(F)c1F (centres unmarked) [Compound 1]

- Ki (Csp-1 [11]): 15 nM
- Ki (Csp-3 [12]): 820 nM
- Ki (Csp-6 [13]): 594 nM
- Ki (Csp-8 [14]): 18 nM
Molecule: Cbz-Val-Ala-Asp-CH2F

- IC50 (µM), inhibition of enzyme activity, fluorogenic substrate (Csp-1 [15]): 0.064 µM
- IC50 (µM), inhibition of enzyme activity, fluorogenic substrate (Csp-3 [16]): 47 µM
- IC50 (µM), inhibition of enzyme activity, fluorogenic substrate (Csp-6 [17]): > 10 µM
- IC50 (µM), inhibition of enzyme activity, fluorogenic substrate (Csp-7 [18]): > 10 µM
- IC50 (µM), inhibition of enzyme activity, fluorogenic substrate (Csp-8 [19]): 2.96 µM
- IC50 (µM), inhibition of enzyme activity, fluorogenic substrate (Csp-9 [20]): 0.87 µM
B1: Cbz-ValAlaAsp-H (peptide)
peptide: Cbz-Val-Ala-Asp-{aldehyde′}
